Results published in the NIST ThermoML archive (doi:10.1021/je0499364).
Numbers after ± are expanded uncertainties.

Columns and labels:
[1] = Crystal
[2] = Molar enthalpy of transition or fusion; conditions: Crystal
[3] = molar heat capacity at constant pressure; conditions: 101.33 kPa

CCCCCCCCCCCCCCCCC(=O)OC [methyl heptadecanoate]
Conditions | Molar enthalpy of transition or fusion [kcal/mol] | Triple point temperature [K]
[1] | – | 303.09 ± 0.16
[2] | 15.27 ± 0.129 | –

[3]
Conditions | molar heat capacity at constant pressure [J/K/mol]
5 K, Crystal | 0.56 ± 0.06
10 K, Crystal | 4.36 ± 0.18
20 K, Crystal | 23.27 ± 0.56
30 K, Crystal | 48.82 ± 0.55
40 K, Crystal | 77.97 ± 0.79
50 K, Crystal | 106.88 ± 1
60 K, Crystal | 131.71 ± 1.2
70 K, Crystal | 154.68 ± 1.4
80 K, Crystal | 175.53 ± 1.6
90 K, Crystal | 192.9 ± 1.6
100 K, Crystal | 208.51 ± 1.6
110 K, Crystal | 224.09 ± 1.7
120 K, Crystal | 238.4 ± 1.8
130 K, Crystal | 252.69 ± 1.8
140 K, Crystal | 265.74 ± 1.9
150 K, Crystal | 275.72 ± 1.9
160 K, Crystal | 284.57 ± 1.9
170 K, Crystal | 302.09 ± 2
180 K, Crystal | 313.76 ± 2.1
190 K, Crystal | 326.38 ± 2.1
200 K, Crystal | 340.04 ± 2.2
210 K, Crystal | 355.66 ± 2.2
220 K, Crystal | 367.89 ± 2.3
230 K, Crystal | 382.88 ± 2.3
240 K, Crystal | 399.49 ± 2.4
250 K, Crystal | 418.37 ± 2.5
260 K, Crystal | 438.62 ± 2.5
270 K, Crystal | 456.93 ± 2.6
280 K, Crystal | 480.24 ± 2.7
290 K, Crystal | 517.76 ± 2.9
310 K, Liquid | 599.17 ± 1.6
320 K, Liquid | 605.44 ± 1.6
330 K, Liquid | 609.25 ± 1.6
340 K, Liquid | 615.4 ± 1.6
350 K, Liquid | 622.81 ± 1.6

CCCCCCCCCCCCCCCC(=O)OC [methyl hexadecanoate]
Conditions | Triple point temperature [K]
[1], Adiabatic calorimetry | 302.71 ± 0.16

Conditions | Molar enthalpy of transition or fusion [kcal/mol]
[2] | 14.35 ± 0.127

[3]
Conditions | molar heat capacity at constant pressure [J/K/mol]
5 K, Crystal | 0.66 ± 0.04
10 K, Crystal | 5.56 ± 0.11
20 K, Crystal | 23.7 ± 0.29
30 K, Crystal | 47.98 ± 0.28
40 K, Crystal | 75.87 ± 0.39
50 K, Crystal | 104.12 ± 0.5
60 K, Crystal | 129.69 ± 0.6
70 K, Crystal | 151.19 ± 0.69
80 K, Crystal | 167.13 ± 0.75
90 K, Crystal | 184.19 ± 0.77
100 K, Crystal | 198.32 ± 0.8
110 K, Crystal | 213.49 ± 0.83
120 K, Crystal | 226.5 ± 0.85
130 K, Crystal | 238.62 ± 0.88
140 K, Crystal | 250.27 ± 0.9
150 K, Crystal | 261.54 ± 0.92
160 K, Crystal | 272.73 ± 0.95
170 K, Crystal | 284.03 ± 0.97
180 K, Crystal | 295.27 ± 0.99
190 K, Crystal | 306.8 ± 1
200 K, Crystal | 318.65 ± 1
210 K, Crystal | 330.97 ± 1.1
220 K, Crystal | 343.93 ± 1.1
230 K, Crystal | 357.74 ± 1.1
240 K, Crystal | 372.37 ± 1.1
250 K, Crystal | 388.24 ± 1.2
260 K, Crystal | 405.39 ± 1.2
270 K, Crystal | 423.81 ± 1.2
280 K, Crystal | 448.6 ± 1.3
290 K, Crystal | 482.7 ± 1.4
300 K, Crystal | 740.48 ± 1.9
310 K, Liquid | 570.55 ± 1.5
320 K, Liquid | 576.47 ± 1.6
330 K, Liquid | 583.02 ± 1.6
340 K, Liquid | 590.14 ± 1.6
350 K, Liquid | 597.66 ± 1.6

CCCCCCCCCCCCCCCCCCC(=O)OC [methyl nonadecanoate]
Conditions | Molar enthalpy of transition or fusion [kcal/mol] | Triple point temperature [K]
[1] | – | 311.49 ± 0.16
[2] | 16.95 ± 0.129 | –

[3]
Conditions | molar heat capacity at constant pressure [J/K/mol]
5 K, Crystal | 0.69 ± 0.04
10 K, Crystal | 5.1 ± 0.11
20 K, Crystal | 26.27 ± 0.32
30 K, Crystal | 55.13 ± 0.31
40 K, Crystal | 87.37 ± 0.43
50 K, Crystal | 117.8 ± 0.55
60 K, Crystal | 143.77 ± 0.66
70 K, Crystal | 168.98 ± 0.76
80 K, Crystal | 190.79 ± 0.84
90 K, Crystal | 210.18 ± 0.82
100 K, Crystal | 228.66 ± 0.86
110 K, Crystal | 244.31 ± 0.89
120 K, Crystal | 259.07 ± 0.92
130 K, Crystal | 273.22 ± 0.95
140 K, Crystal | 286.84 ± 0.97
150 K, Crystal | 300.17 ± 1
160 K, Crystal | 313.53 ± 1
170 K, Crystal | 327.31 ± 1.1
180 K, Crystal | 339.52 ± 1.1
190 K, Crystal | 353.2 ± 1.1
200 K, Crystal | 367.35 ± 1.1
210 K, Crystal | 380.94 ± 1.2
220 K, Crystal | 397.52 ± 1.2
230 K, Crystal | 413.93 ± 1.2
240 K, Crystal | 432.32 ± 1.3
250 K, Crystal | 450.65 ± 1.3
260 K, Crystal | 469.65 ± 1.3
270 K, Crystal | 491.94 ± 1.4
280 K, Crystal | 518.01 ± 1.4
290 K, Crystal | 549.43 ± 1.5
300 K, Crystal | 586.63 ± 1.6
320 K, Liquid | 691.61 ± 1.8
330 K, Liquid | 677.17 ± 1.8
340 K, Liquid | 684.76 ± 1.8
350 K, Liquid | 693.78 ± 1.8

CCCCCCCCC(=O)OC [methyl nonanoate]
Conditions | Molar enthalpy of transition or fusion [kcal/mol] | Triple point temperature [K]
[1] | – | 238.72 ± 0.16
[2] | 6.53 ± 0.122 | –

[3]
Conditions | molar heat capacity at constant pressure [J/K/mol]
5 K, Crystal | 0.39 ± 0.03
10 K, Crystal | 2.96 ± 0.07
20 K, Crystal | 17.17 ± 0.21
30 K, Crystal | 34.66 ± 0.22
40 K, Crystal | 53.39 ± 0.3
50 K, Crystal | 71.31 ± 0.37
60 K, Crystal | 86.46 ± 0.43
70 K, Crystal | 100.55 ± 0.48
80 K, Crystal | 113.08 ± 0.53
90 K, Crystal | 123.98 ± 0.65
100 K, Crystal | 134.32 ± 0.67
110 K, Crystal | 143.79 ± 0.69
120 K, Crystal | 152.28 ± 0.7
130 K, Crystal | 160.47 ± 0.72
140 K, Crystal | 168.48 ± 0.74
150 K, Crystal | 175.96 ± 0.75
160 K, Crystal | 183.23 ± 0.77
170 K, Crystal | 190.85 ± 0.78
180 K, Crystal | 198.49 ± 0.8
190 K, Crystal | 206.56 ± 0.81
200 K, Crystal | 215.27 ± 0.83
210 K, Crystal | 224.62 ± 0.85
220 K, Crystal | 236.53 ± 0.87
230 K, Crystal | 265.31 ± 0.93
240 K, Liquid | 330.8 ± 1.1
250 K, Liquid | 330.84 ± 1.1
260 K, Liquid | 333.42 ± 1.1
270 K, Liquid | 335.9 ± 1.1
280 K, Liquid | 338.72 ± 1.1
290 K, Liquid | 342.82 ± 1.1
300 K, Liquid | 346.27 ± 1.1
310 K, Liquid | 350.79 ± 1.1
320 K, Liquid | 354.3 ± 1.1
330 K, Liquid | 359.1 ± 1.1
340 K, Liquid | 363.82 ± 1.1
350 K, Liquid | 368.16 ± 1.1
